Test results published in patent US8710045B2, “Agents for preventing and treating disorders involving modulation of the ryanodine receptors” (The Trustees of Columbia University in the City of New York, priority 2004, dated 2014).

What was measured:
RyR1 [1] = target: T1, RyR1 (Mus musculus, UniProt E9PZQ0); assay: RyR1 immunoprecipitation from soleus muscle after 21 days of exercise, calstabin1 western blot; type: in vivo; conditions: subcutaneous mini-osmotic pump
T1 construct: RyR1 was immunoprecipitated from soleus muscle homogenates of mice following 21 days of exercise; from tissue; host or cells: mouse hind-limb skeletal muscle (soleus, EDL; SR microsomes for bilayer recording)
T1 sequence (E9PZQ0 whole entry): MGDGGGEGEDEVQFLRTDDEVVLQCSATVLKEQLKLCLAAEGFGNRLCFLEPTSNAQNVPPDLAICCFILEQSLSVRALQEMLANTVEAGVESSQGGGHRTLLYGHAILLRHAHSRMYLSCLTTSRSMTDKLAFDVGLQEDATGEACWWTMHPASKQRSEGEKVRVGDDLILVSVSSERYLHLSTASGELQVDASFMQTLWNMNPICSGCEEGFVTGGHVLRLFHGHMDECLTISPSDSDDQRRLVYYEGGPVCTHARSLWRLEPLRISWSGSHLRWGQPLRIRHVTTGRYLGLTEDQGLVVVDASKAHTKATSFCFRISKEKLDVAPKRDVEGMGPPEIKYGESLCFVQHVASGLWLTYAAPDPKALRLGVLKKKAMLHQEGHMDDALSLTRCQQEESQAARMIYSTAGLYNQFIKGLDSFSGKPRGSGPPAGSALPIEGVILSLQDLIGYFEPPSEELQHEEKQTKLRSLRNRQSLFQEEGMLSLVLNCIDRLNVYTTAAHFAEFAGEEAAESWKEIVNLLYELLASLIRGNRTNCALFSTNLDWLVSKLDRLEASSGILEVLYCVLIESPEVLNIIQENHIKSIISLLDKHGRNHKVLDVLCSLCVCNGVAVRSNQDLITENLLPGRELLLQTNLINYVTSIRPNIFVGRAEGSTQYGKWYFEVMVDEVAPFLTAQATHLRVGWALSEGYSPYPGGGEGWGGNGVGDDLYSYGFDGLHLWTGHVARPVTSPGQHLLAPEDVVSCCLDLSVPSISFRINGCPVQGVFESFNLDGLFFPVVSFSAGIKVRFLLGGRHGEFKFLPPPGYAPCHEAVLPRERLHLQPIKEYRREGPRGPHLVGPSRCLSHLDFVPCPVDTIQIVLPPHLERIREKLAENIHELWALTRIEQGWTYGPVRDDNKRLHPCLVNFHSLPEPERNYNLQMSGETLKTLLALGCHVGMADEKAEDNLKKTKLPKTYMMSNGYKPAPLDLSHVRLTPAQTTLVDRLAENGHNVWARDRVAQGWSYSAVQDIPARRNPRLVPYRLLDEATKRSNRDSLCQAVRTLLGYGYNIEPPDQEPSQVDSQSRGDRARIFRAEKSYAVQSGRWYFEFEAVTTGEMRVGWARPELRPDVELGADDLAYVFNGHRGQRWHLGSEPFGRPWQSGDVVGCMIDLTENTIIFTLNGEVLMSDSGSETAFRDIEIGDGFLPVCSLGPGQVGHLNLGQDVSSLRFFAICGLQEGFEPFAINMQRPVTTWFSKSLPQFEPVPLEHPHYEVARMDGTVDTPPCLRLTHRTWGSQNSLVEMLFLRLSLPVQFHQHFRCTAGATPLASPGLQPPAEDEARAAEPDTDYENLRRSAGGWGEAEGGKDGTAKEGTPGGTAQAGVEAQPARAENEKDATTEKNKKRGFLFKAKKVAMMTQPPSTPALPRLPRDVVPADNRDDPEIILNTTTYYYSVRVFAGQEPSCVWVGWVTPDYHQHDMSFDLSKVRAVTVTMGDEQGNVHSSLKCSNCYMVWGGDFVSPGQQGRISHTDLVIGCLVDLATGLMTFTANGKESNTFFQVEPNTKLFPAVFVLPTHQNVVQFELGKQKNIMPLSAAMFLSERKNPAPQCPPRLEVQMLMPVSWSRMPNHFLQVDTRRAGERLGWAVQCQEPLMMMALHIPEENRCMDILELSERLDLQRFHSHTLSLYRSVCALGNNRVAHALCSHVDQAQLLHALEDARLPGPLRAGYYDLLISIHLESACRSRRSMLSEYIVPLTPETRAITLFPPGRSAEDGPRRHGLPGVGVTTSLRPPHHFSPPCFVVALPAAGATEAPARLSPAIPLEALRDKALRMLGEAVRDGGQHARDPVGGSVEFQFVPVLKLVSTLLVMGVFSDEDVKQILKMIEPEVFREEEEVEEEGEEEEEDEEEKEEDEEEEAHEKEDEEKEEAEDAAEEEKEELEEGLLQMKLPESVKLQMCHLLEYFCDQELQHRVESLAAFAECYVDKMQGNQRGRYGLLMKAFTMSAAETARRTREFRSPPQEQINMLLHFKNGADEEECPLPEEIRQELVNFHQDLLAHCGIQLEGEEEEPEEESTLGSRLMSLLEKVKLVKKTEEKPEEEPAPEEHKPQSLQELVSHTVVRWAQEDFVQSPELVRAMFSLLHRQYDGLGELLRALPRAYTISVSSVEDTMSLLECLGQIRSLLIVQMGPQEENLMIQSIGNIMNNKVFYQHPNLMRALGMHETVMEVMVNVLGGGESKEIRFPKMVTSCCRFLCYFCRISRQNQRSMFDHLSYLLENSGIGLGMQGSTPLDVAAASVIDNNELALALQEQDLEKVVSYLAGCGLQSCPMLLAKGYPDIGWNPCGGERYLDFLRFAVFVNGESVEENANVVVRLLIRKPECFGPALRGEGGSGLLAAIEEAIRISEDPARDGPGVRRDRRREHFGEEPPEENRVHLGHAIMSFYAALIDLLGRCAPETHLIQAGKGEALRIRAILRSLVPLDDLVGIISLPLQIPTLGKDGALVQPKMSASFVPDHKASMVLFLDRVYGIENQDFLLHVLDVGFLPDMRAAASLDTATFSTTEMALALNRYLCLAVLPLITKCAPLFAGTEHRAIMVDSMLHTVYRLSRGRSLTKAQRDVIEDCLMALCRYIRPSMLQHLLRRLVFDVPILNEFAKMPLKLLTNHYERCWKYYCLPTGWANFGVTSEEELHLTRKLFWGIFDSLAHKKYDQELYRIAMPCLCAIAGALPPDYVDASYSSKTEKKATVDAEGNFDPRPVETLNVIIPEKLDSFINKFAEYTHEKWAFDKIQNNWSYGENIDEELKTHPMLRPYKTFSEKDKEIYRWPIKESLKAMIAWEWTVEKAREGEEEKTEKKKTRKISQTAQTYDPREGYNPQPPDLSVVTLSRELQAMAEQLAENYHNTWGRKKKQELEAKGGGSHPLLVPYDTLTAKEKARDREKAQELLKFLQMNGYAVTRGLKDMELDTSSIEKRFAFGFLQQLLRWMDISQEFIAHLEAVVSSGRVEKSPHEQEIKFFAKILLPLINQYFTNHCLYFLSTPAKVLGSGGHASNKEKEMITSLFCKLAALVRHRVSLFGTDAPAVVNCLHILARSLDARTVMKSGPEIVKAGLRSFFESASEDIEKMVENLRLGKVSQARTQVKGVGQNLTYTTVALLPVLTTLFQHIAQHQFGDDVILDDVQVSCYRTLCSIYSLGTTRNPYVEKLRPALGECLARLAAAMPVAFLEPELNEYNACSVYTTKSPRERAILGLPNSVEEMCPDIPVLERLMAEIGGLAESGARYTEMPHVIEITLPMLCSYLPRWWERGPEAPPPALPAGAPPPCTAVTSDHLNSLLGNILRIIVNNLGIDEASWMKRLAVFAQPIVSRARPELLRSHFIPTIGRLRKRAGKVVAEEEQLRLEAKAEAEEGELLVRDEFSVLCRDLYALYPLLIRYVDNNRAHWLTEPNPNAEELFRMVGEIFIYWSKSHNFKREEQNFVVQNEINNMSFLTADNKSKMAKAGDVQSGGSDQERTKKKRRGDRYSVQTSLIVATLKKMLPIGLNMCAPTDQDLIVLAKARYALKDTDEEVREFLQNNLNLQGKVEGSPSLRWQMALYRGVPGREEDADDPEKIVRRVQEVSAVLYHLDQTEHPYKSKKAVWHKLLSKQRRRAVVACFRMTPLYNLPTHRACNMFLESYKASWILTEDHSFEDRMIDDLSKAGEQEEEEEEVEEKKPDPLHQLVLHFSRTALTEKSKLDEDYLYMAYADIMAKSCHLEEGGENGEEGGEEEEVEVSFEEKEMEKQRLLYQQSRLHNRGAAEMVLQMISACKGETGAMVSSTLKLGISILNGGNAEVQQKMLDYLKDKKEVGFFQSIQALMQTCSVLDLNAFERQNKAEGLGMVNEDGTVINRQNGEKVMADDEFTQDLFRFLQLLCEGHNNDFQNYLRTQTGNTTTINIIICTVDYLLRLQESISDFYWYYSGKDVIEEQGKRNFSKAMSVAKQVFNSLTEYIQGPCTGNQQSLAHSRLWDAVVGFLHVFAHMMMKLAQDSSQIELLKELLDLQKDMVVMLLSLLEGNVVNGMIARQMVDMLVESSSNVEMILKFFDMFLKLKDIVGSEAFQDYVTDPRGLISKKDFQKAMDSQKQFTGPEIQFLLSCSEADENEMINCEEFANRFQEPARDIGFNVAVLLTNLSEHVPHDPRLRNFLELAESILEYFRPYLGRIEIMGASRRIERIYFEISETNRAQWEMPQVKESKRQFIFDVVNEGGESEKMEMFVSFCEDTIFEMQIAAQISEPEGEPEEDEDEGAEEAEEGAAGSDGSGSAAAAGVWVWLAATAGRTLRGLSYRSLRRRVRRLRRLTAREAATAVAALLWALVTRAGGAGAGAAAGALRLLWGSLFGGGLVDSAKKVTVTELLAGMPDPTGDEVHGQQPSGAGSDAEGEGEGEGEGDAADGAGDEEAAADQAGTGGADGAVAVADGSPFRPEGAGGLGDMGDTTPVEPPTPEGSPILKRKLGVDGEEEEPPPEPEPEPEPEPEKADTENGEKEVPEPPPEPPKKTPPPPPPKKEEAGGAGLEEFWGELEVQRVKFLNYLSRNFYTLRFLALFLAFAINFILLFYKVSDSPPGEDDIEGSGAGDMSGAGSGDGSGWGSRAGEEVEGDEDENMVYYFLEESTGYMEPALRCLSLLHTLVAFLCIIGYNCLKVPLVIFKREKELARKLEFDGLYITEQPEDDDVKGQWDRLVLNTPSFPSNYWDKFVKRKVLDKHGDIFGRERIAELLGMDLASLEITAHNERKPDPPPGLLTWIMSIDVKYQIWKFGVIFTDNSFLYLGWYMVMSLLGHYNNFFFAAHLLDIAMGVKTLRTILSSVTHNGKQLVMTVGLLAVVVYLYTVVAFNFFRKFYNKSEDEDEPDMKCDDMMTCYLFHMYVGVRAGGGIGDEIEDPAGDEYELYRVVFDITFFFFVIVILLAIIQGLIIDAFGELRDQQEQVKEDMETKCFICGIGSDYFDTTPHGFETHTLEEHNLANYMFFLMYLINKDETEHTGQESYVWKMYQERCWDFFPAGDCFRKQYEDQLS
T1 sequence (P26883 2-108 partner limits assumed): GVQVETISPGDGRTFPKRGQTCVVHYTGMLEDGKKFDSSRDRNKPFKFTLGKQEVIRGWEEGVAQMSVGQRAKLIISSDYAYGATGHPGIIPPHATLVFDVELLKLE
Procedure: RyR1 was immunoprecipitated from soleus muscle homogenates of mice following 21 days of exercise with or without simultaneous subcutaneous mini-osmotic pump treatment with S36 and then western blotted back for RyR1, phospho-epitope specific RyR1-pS2844, and calstabin1 bound to the RyR1 macromolecular complex.
The samples were incubated with protein A Sepharose beads (Amersham Pharmacia) at 4° C. for 1 h, after which the beads were washed three times with buffer. Proteins were separated on SDS PAGE gels (6% for RyR2 and 15% for calstabin2) and transferred onto nitrocellulose membranes overnight (SemiDry transfer blot, Bio-Rad). After incubation with 5% nonfat milk to prevent non-specific antibody binding and a wash in Tris-buffered saline with 0.1% Tween-20, membranes were incubated for 1-2 h at room temperature with primary antibodies anti-calstabin (1:1,000), anti-RyR (5029; 1:5,000), or anti-phospho-RyR2-pSer2809 (1:5,000), which detects PKA-phosphorylated mouse RyR1-pSer2844 and RyR2-pSer2808. After three washes, membranes were incubated with horseradish peroxidase-labeled anti-rabbit IgG (1:5,000, Transduction Laboratories, Lexington, Ky.), and developed with an enhanced chemiluminescent detection system (Amersham Pharmacia). Band densities were quantified by using QUANTITY ONE software (Bio-Rad).

RyR1 [2] = target: T1, RyR1; assay: RyR1 single channel recording in planar lipid bilayers from exercised mice; type: in vivo; conditions: 90 nM [Ca2+]cis
Procedure: RyR1 channels were reconstituted by spontaneous fusion of microsomes into the planar lipid bilayer (a mixture of phosphatidylethanolamine and phosphatidylserine in a 3:1 ratio, Avanti Polar Lipids). Planar lipid bilayers were formed across a 200 μm aperture in a polysulfonate cup (Warner Instruments, Inc.), which separated two bathing solutions (1 mM EGTA, 250/125 mM HEPES/Tris, 50 mM KCl, 0.5 mM CaCl2, pH 7.35 as cis solution and 53 mM Ba(OH)2, 50 mM KCl, 250 mM HEPES, pH 7.35 as trans solution). After incorporation, RyR1 channel activity was recorded continuously for at least 10 minutes. The concentration of free Ca^2+ in the cis chamber was calculated with WinMaxC program (version 2.50) (Bers, Patton et al. 1994). Single channel currents were recorded at 0 mV using the Axopatch 200A patch-clamp amplifier (Axon Instruments, USA) in gap-free mode, filtered at 1 kHz, and digitized at 10 kHz. Data acquisition was performed using Digidata 1322A and Axoscope 9 software (Axon Instruments, USA). The recordings were analyzed using Clampfit 10.1 (Molecular Devices, USA) and Origin software (ver. 6.0, Microcal Software, Inc., USA).
Chronic exercise results in leaky RyR1 Channels which can be reversed by calstabin1 rebinding: A critical issue is whether the biochemical changes in the RyR1 macromolecular complex identified during exercise result in changes in RyR1 channel activity. […]

RyR = assay: Calstabin binding to RyR in brain after isoproterenol infusion (RyR immunoprecipitation, western blot)
Procedure: Tissue lysates were prepared by homogenizing the tissue (e.g., brain, cardiac, muscle) with Tissuemiser in 0.7 ml lysis buffer (pH 7.4, 10 mM HEPES, 1 mM EDTA, 20 mM NaF, 2 mM Na3 VO4, 320 mM sucrose, and protease inhibitors) and centrifuged for 15 min at 4,000×g at 4° C. The supernatant was then centrifuged for 15 min at 10,000×g at 4° C. For brain homogenates, the supernatant was centrifuged at 50,000×g at 4° C. for 30 minutes, and the pellet (microsomes) was resuspended in homogenization buffer which was supplemented with 0.9% NaCl. For brain tissue, the resuspended pellet was used for immunoprecipitation of RyR. For cardiac and muscle tissue homogenates, the supernatant of the 10,000×g spin was used for immunoprecipitation of the RyR. Protein concentrations were measured by Bradford protein assay. The sample was frozen at −80° C. until use.
100 μg of microsomes were brought to a volume of 500 μl with modified RIP A buffer (50 mM Tris-HCl (PH 7.4), 0.9% NaCl, 5.0 mM NaF, 1.0 mM Na3VO4, 0.5% TritonX100, and protease inhibitors). […]
Experiments were performed to determine whether the compounds described herein cross the blood brain barrier and enhance binding of cal stab in to ryanodine receptors in the brain. […] RyR was immunoprecipitated using an antibody to RyR, and the presence of calstabin in the immunoprecipitates was detected using an antibody to calstabin.

C57BL/6J mice = assay: Morris water maze spatial learning in exercised mice; type: in vivo, mouse; conditions: end of 21-day testing period, p approximately 0.2, n=8
Procedure: 16 wild type C57BL/6J 3-month-old mice, pairwise-matched for sex, age, and body weight, were randomized to either S 107 treatment (10 mg/ml; 0.25 μl/hr subcutaneous osmotic pump) or “vehicle” (25% DMSO in dH2O) treatment groups.
Mice were sacrificed after 21 days for performing biochemistry, calcium imaging and ex vivo function studies.
The layout of the water maze system consists of a circular water tank divided into four quadrants (labeled 1 thru 4 in FIG. 58, with four hidden platforms (labeled 5 to 8 in FIG. 58). The following protocol was followed: Day 1: mice trained to find “hidden” platform with visible marker on platform from random starting location. On days 2-4, the visible cue was removed, and mice were repeatedly challenged to find hidden platform at target 5 in quadrant 1. The time taken for each mouse to reach the target, i.e. the “latency,” was recorded. On day 5, the previous day's protocol was repeated, then the hidden platform was removed, and each mouse's movements recorded to quantify time in various target regions. The protocol was repeated in week 2.
The platform was then removed, and the swimming pattern of the mice was assessed at the end of the 21-day testing period.

RyR1 [3] = target: T1, RyR1; assay: Analysis of ryanodine receptor complex from EDL after chronic exercise (immunoprecipitation, immunoblot); type: in vivo; conditions: chronic exercise protocol
Procedure: Analysis of Ryanodine Receptor Complex: 10 mg muscle samples were isotonically lysed. […] The samples were incubated with protein A Sepharose beads (Amersham Pharmacia) at 4° C. for 1 h, after which the beads were washed three times with buffer. Proteins were separated on SDS-PAGE gels (4-20% gradient) and transferred onto nitrocellulose membranes overnight (SemiDry transfer blot, Bio-Rad). After incubation with blocking solution (LICOR Biosciences, Lincoln Nebr.) to prevent non-specific antibody binding and a wash in Tris-buffered saline with 0.1% Tween-20, membranes were incubated for 1-2 h at room temperature with primary antibodies anti-calstabin (1:2500 in blocking buffer), anti-RyR (5029, 1:5,000), or anti-phospho-RyR2-pSer2809 (1:5000), which detects PKA-phosphorylated mouse RyR1-pSer2844 and RyR2-pSer2808, anti-PDE4D3 (1:1000). After three washes, membranes were incubated with infrared labeled secondary antibodies (1:10,000 dilution, LICOR Biosystems). Band densities were quantified using the Odyssey Infrared Imaging System (LICOR Biosciences).

[4] = tested on: L-type calcium channel current; assay: S107 specificity: L-type calcium channel current; conditions: 500 nM

SMILES	calstabin1 bound to RyR1 (RyR1 [1])	duration of the channel dwell times (RyR1 [2])	RyR1 open probability (RyR1 [2]; Ex+S107 vs Ex+veh, p<0.005)	blood brain barrier penetration (RyR; mice)	in vivo binding of calstabin to RyR (RyR; mid-brain and cerebellum, after isoproterenol infusion for 5 days)	learning / persistence in Morris water maze probe (C57BL/6J mice)	Calstabin1 depletion from RyR1 (RyR1 [3])	effect on L-type calcium channel current [4]
COc1ccc2c(c1)CN(C(=O)C(=O)O)CCS2 [S36]	allows RyR1 to rebind calstabin1	–	–	–	–	–	–	–
COc1ccc2c(c1)CN(C)CCS2 [S107]	–	Neither chronic exercise nor S107 had any effect	significant decrease	crosses the blood brain barrier	restores in vivo binding of calstabin to RyR	trend towards improved learning or increased persistence	nearly entirely reversed	not to affect
